Laboratory results reported in patent publication US20200346048A1, “METHOD AND KIT FOR HOME CONTROLLED OVARIAN STIMULATION FOR IN VITRO FERTILIZATION” (priority 2019, published 2020).
Several values for one entry are separate records, joined by “and”; a condition that tells them apart may be missing. Equal entries are not always repeated. Square brackets hold non-standard residues; d marks the D form. Peptide text beside a SMILES is read from it. d(hArg(Et2)) = CCN=C(NCC)NCCCC[C@@H](N)C(=O)O; hArg(Et2) = CCN=C(NCC)NCCCC[C@H](N)C(=O)O; dPhe(4-Cl) = N[C@H](Cc1ccc(Cl)cc1)C(=O)O; d2Nal = N[C@H](Cc1ccc2ccccc2c1)C(=O)O; d3Pal = N[C@H](Cc1cccnc1)C(=O)O

How the values were obtained:
[1] = system: Luteinizing hormone (LH) blood level; assay: GnRH antagonist protocol with ganirelix acetate injections (Example 1): LH blood level before and after medication; type: in vivo, female patients
Protocol: Five female patients were treated with a GnRH antagonist protocol requiring injections of medications. […]
Three patients, numbered 3 to 5, were injected with 75, 150 and 225 Units of FSH, respectively, on days 4 to 12 and one third a syringe of 150 mcg/0.5 mL of ganirelix acetate on days 11 to 13. Patient no. 3 received 50 mg of clomiphene citrate on days 4 to 12, and 2.5 mg of letrozole on days 4 to 8. Patient no. 4 received 100 mg of clomiphene citrate and 2.5 mg of letrozole on days 4 to 8, and 50 mg of clomiphene citrate on days 9 to 11. Patient no. 5 received no clomiphene citrate or letrozole. Luteinizing hormone (LH) blood level was 12.0, 18.0 and 14.6 mIU/mL, respectively, on day 10 and dropped to 4.9, 16.0 and 14.1 mIU/mL, respectively, on day 12. […]

[2] = system: Luteinizing hormone (LH) blood level; assay: Home controlled ovarian hyperstimulation method with vaginal elagolix (Example 2): LH blood level before and after medication; type: in vivo, female patients; details: 50 mg elagolix tablet as vaginal suppository on days 9 and 11
Protocol: On day 9 of the menstrual cycle, the patient is directed to orally take 50 to 150 mg, preferably 100 mg, (one, two, or three 50 mg oral tablets) of clomiphene citrate and to either insert vaginally or take orally, depending on the patient's preference, a gonadotropin-releasing hormone (GnRH) antagonist such as elagolix (marketed as ORILISSA®), instead of the expensive injections of ganirelix acetate (GANIRELEX®) or cetrorelix acetate (marketed as CETROTIDE®) used routinely in conventional practices. A dose of 25 mg (⅛^th of a pill) up to 200 mg of elagolix (1 full pill), preferably 25 mg, will be used, with the dose being the same whether inserted vaginally or taken orally. Elagolix is a GnRH antagonist that is conventionally used in the treatment of pain associated with endometriosis in women, not for the treatment of infertility. By blocking the GnRH receptor, elagolix suppresses LH release by the pituitary gland and thus prevents LH surge. Ultimately, elagolix suppresses gonadal steroid production, thereby reducing circulating levels of sex hormones such as progesterone, estradiol, and testosterone. Elagolix is generally an oral medication (oral tablet), however in the present method, elagolix is a tablet taken mainly as a vaginal suppository, but may be taken orally based on the patient's preference. […]

Structure (SMILES)	LH blood hormone level (mIU/mL) AFTER medication intake ([1]; Example 1, one line per patient (patients 1-5), after ganirelix injections, listed as Conventional Ganielex/Cetrotide Injectables)	LH blood hormone level (mIU/mL) BEFORE medication intake ([1]; Example 1, one line per patient (patients 1-5), baseline before ganirelix injections, with FSH and, except patient 5, clomiphene citrate/letrozole, listed as Conventional Ganielex/Cetrotide Injectables)	% Drop in blood LH hormone level ([1]; Example 1, one line per patient (patients 1-5), before vs after medication intake, listed as Conventional Ganielex/Cetrotide Injectables)	Luteinizing hormone (LH) blood level on day 12 ([1]; patient no. 1, half a syringe of 150 mcg/0.5 mL ganirelix acetate on days 11 and 12)	Luteinizing hormone (LH) blood level on day 10 ([1]; patient no. 1, half a syringe of 150 mcg/0.5 mL ganirelix acetate on days 11 and 12, FSH 150 Units, clomiphene citrate 50 mg, letrozole 2.5 mg)	Luteinizing hormone (LH) blood level on day 13 ([1]; patient no. 2, half a syringe of 150 mcg/0.5 mL ganirelix acetate on days 11 to 13)	Luteinizing hormone (LH) blood level on day 11 ([1]; patient no. 2, half a syringe of 150 mcg/0.5 mL ganirelix acetate on days 11 to 13, FSH 75/150 Units, clomiphene citrate 50 mg, letrozole 2.5 mg)	Luteinizing hormone (LH) blood level on day 10 ([1]; patients no. 3, 4, 5 respectively, one third a syringe of 150 mcg/0.5 mL ganirelix acetate on days 11 to 13, FSH 75, 150, 225 Units)	Luteinizing hormone (LH) blood level on day 13 [2]	Luteinizing hormone (LH) blood level on day 11 ([2]; clomiphene citrate 100 mg, letrozole 5 mg)
CCN=C(NCC)NCCCC[C@H](NC(=O)[C@H](CC(C)C)NC(=O)[C@@H](CCCCNC(=NCC)NCC)NC(=O)[C@H](Cc1ccc(O)cc1)NC(=O)[C@H](CO)NC(=O)[C@@H](Cc1cccnc1)NC(=O)[C@@H](Cc1ccc(Cl)cc1)NC(=O)[C@@H](Cc1ccc2ccccc2c1)NC(C)=O)C(=O)N1CCC[C@H]1C(=O)N[C@H](C)C(N)=O [Ganirelex, ganirelix acetate] (Ac-[d2Nal][dPhe(4-Cl)][d3Pal]SY[d(hArg(Et2))]L[hArg(Et2)]P[dA]-NH2)	2.0 mIU/mL and 6.3 mIU/mL and 4.9 mIU/mL and 16.0 mIU/mL and 14.1 mIU/mL	4.3 mIU/mL and 12.0 mIU/mL (2×) and 18.0 mIU/mL and 14.6 mIU/mL	3.4%	2 mIU/mL	4.3 mIU/mL	6.3 mIU/mL	12.0 mIU/mL	12.0 mIU/mL and 18.0 mIU/mL and 14.6 mIU/mL	–	–
COc1cccc(-c2c(C)n(Cc3c(F)cccc3C(F)(F)F)c(=O)n(C[C@H](NCCCC(=O)O)c3ccccc3)c2=O)c1F [Vaginal elagolix suppository, elagolix]	–	–	–	–	–	–	–	–	1.0 mIU/mL	7.0 mIU/mL
